Measured values from patent US20190016689A1, “NOVEL FLUORINATED QUINAZOLINE DERIVATIVES AS EGFR INHIBITORS” (TRILLIUM THERAPEUTICS INC., priority 2016, published 2019).

Experiments:
MDA-MB-231/ATCC = assay: NCI screening panel (SRB); format: cell-based; details: Homo sapiens, MDA-MB-231/ATCC (Breast), 48 h; for CC50: read-out: LC50 (the source's name)
SRC = SRC (Homo sapiens, UniProt P12931); assay: Kinase assays, selectivity panel (qPCR); details: read-out: % Control @ 300 nM
COLO205 = assay: NCI screening panel (SRB); format: cell-based; details: Homo sapiens, COLO 205, COLO205 (Colon), 48 h; for CC50: read-out: LC50 (the source's name)
NCI-H226 = assay: NCI screening panel (SRB); format: cell-based; details: Homo sapiens, NCI-H226 (NSCLC), 48 h; for CC50: read-out: LC50 (the source's name)
K-562 = assay: NCI screening panel (SRB); format: cell-based; details: Homo sapiens, K562, K-562 (Leukemia), 48 h; for CC50: read-out: LC50 (the source's name)
EGFR (T790M) = EGFR (T790M) (Homo sapiens, UniProt P00533, T790M); assay: Kinase assays, selectivity panel (qPCR); details: read-out: % Control @ 300 nM
UO-31 = assay: NCI screening panel (SRB); format: cell-based; details: Homo sapiens, UO-31 (Renal), 48 h; for CC50: read-out: LC50 (the source's name)
SN12C = assay: NCI screening panel (SRB); format: cell-based; details: Homo sapiens, SN12C (Renal), 48 h; for CC50: read-out: LC50 (the source's name)
NCI-H23 = assay: NCI screening panel (SRB); format: cell-based; details: Homo sapiens, NCI-H23 (NSCLC), 48 h; for CC50: read-out: LC50 (the source's name)
UACC-257 = assay: NCI screening panel (SRB); format: cell-based; details: Homo sapiens, UACC-257 (Melanoma), 48 h; for CC50: read-out: LC50 (the source's name)
786-0 = assay: NCI screening panel (SRB); format: cell-based; details: Homo sapiens, 786-0 (Renal), 48 h; for CC50: read-out: LC50 (the source's name)
TK-10 = assay: NCI screening panel (SRB); format: cell-based; details: Homo sapiens, TK-10 (Renal), 48 h; for CC50: read-out: LC50 (the source's name)
HT29 = assay: NCI screening panel (SRB); format: cell-based; details: Homo sapiens, HT-29, HT29 (Colon), 48 h; for CC50: read-out: LC50 (the source's name)
SF-295 = assay: NCI screening panel (SRB); format: cell-based; details: Homo sapiens, SF-295 (CNS), 48 h; for CC50: read-out: LC50 (the source's name)
SK-MEL-5 = assay: NCI screening panel (SRB); format: cell-based; details: Homo sapiens, SK-MEL-5 (Melanoma), 48 h; for CC50: read-out: LC50 (the source's name)
M14 = assay: cells; details: Homo sapiens, M14, 48 h; for CC50: read-out: LC50
LCK (Lymphocyte TK) = LCK (Lymphocyte TK) (Homo sapiens, UniProt P06239); assay: Kinase assays, selectivity panel (qPCR); details: read-out: % Control @ 300 nM
CYP 2D6 = CYP 2D6 (Homo sapiens, UniProt P10635); assay: CYP450 inhibition; format: in vitro ADME
Procedure: (§1) Prepare stock solutions of the test compound and positive control compounds described in Table 8 in DMSO at 0, 0.2, 1, 2, 10, 50, 200, 2000 and 10000 μM. Transfer 1 μL of the stock solutions to the Incubation Plate. The final concentrations of test compound or positive control compound are 0, 0.001, 0.005, 0.01, 0.05, 0.25, 1, 10 and 50 μM. All experiments are performed in duplicate.

CYP 1A2 = CYP 1A2 (Homo sapiens, UniProt P05177); assay: CYP450 inhibition; format: in vitro ADME
Procedure: as §1

CYP 2C19 = CYP 2C19 (Homo sapiens, UniProt P33261); assay: CYP450 inhibition; format: in vitro ADME
Procedure: as §1

CYP 2C9 = CYP 2C9 (Homo sapiens, UniProt P11712); assay: CYP450 inhibition; format: in vitro ADME
Procedure: as §1

[1] = Chemical stability in simulated intestinal fluid; format: physicochemical; details: 37° C.
Procedure: For SIF: Dissolve 6.8 g of KH2PO4 into about 500 mL ultrapure water and adjust the solution to a pH 6.8 with 0.1 M NaOH. Dissolve 10 g of trypsin into ultrapure water. Then the two solutions are mixed well and diluted with ultrapure water to 1000 mL.
The working solutions of test compound and control compound chlorambucil are prepared in DMSO at the concentration of 500 μM.
Place 2 μL of working solution of each sample in order into their proper 96-well rack. Add 198 μL of pre-incubated PBS pH 7.4 or simulated intestinal fluid into each vial of the cap-less Sample plate to achieve a final concentration of […]. The assay is performed in duplicate. Seal using a molded PTFE/Silicone plug. Then transfer the Sample plate to the Eppendorf Thermomixer Comfort plate shaker and shake at 37° C. at 1100 RPM. Take one of the glass vials at designated time points including 0, 30, 60, 120 and 240 min. For each time point, the initiation of the reaction is staggered so all time points are terminated with 1000 μL of cold quench solution (acetonitrile containing internal standards (IS, 200 nM Labetalol, 100 nM Alprazolam and 2 μM Ketoprofen) at the same time. Vortex for 1 minute. Centrifuge the samples in plate at 3,220 g for 5 minutes at 4° C. Transfer 100 μL of the supernatant to a new plate. The supernatant may be diluted with 100 μL or 200 μL water according to the LC/MS signal response and peak shape. Mix well and analyze samples using LC/MS/MS.

CYP 3A4 = CYP 3A4 (Homo sapiens, UniProt P08684); assay: CYP450 inhibition; format: in vitro ADME; details: Testosterone
Sequence of CYP 3A4 (P08684 whole entry): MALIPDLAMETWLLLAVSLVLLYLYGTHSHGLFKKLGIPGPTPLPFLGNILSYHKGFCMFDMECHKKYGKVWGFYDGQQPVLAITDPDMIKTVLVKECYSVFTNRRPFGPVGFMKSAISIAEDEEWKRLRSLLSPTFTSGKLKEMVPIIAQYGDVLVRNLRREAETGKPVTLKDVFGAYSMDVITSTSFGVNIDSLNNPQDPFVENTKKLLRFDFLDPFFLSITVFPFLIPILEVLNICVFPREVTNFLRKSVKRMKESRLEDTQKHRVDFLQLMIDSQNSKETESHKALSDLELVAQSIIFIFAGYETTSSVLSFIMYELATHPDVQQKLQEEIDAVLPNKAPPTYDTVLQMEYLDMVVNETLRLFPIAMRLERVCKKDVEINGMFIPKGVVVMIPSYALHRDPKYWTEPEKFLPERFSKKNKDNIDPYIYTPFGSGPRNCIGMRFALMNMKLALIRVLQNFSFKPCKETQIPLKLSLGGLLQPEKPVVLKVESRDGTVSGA

Sequence of CYP 2D6 (P10635 whole entry): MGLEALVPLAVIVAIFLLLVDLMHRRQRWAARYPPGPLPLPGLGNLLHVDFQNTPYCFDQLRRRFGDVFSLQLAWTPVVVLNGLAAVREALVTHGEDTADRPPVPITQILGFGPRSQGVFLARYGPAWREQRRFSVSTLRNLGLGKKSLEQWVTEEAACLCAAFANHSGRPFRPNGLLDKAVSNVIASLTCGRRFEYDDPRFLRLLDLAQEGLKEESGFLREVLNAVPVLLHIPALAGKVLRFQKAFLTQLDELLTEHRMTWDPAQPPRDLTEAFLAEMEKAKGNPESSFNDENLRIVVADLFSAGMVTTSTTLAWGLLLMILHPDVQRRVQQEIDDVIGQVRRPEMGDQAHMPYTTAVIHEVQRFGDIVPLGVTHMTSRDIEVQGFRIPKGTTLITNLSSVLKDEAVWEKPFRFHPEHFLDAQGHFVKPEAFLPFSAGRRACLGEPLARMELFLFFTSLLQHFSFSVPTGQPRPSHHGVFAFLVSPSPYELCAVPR
Sequence of CYP 2C19 (P33261 whole entry): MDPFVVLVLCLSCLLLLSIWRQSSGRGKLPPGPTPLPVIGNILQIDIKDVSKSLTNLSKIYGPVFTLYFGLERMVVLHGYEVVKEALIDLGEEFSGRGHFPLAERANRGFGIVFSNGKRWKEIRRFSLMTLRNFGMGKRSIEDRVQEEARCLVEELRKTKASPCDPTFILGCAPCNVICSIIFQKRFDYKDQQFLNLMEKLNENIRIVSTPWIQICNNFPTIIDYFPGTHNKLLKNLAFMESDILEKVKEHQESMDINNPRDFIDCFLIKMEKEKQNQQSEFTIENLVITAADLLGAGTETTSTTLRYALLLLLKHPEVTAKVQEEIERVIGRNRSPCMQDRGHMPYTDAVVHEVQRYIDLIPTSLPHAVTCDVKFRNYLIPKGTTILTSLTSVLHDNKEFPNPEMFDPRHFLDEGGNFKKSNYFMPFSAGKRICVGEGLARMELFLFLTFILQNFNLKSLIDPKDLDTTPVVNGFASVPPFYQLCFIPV
Sequence of LCK (Lymphocyte TK) (P06239 whole entry): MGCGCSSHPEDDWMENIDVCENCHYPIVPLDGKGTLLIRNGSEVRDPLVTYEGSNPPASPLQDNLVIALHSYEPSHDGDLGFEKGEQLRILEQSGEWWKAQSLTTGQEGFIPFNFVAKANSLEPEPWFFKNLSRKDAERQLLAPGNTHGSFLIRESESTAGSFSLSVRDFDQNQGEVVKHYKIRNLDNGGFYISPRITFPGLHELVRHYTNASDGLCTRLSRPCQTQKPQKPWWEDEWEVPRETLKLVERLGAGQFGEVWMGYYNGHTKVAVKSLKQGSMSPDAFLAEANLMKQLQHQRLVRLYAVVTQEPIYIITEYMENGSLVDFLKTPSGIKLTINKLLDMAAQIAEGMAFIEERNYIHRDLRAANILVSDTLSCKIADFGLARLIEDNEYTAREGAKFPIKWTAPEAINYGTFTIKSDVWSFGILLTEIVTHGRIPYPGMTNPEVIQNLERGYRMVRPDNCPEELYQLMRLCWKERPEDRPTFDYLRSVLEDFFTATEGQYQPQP
Sequence of SRC (P12931 whole entry): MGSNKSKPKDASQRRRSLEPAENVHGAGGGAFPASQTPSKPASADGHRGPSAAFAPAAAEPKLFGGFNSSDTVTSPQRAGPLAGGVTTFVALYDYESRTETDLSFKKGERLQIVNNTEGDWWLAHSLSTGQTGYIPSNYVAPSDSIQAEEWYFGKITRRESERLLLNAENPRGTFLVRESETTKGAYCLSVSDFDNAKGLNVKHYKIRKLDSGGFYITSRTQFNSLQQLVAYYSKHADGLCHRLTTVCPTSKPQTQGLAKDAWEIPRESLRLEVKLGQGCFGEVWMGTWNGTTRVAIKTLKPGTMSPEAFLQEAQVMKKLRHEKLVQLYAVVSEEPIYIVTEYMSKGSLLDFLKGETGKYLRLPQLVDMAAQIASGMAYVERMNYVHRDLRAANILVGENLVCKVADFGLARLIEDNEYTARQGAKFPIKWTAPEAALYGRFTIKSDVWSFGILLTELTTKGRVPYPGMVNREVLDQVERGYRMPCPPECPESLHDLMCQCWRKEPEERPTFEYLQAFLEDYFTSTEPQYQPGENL
Sequence of CYP 1A2 (P05177 whole entry): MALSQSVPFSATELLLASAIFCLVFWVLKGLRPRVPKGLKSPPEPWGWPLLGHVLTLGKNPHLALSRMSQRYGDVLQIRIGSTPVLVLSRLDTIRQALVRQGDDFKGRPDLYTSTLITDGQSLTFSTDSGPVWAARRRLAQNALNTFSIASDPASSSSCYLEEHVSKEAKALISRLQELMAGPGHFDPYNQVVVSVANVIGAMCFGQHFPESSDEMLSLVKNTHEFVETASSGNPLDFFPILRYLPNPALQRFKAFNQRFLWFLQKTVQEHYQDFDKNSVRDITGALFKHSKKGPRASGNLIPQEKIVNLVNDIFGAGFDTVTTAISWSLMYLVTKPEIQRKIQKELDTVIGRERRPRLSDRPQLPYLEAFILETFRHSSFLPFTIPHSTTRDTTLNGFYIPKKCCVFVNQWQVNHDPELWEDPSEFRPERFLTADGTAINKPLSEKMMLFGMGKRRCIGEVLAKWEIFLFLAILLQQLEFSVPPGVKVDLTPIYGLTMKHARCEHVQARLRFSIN
Sequence of CYP 2C9 (P11712 whole entry): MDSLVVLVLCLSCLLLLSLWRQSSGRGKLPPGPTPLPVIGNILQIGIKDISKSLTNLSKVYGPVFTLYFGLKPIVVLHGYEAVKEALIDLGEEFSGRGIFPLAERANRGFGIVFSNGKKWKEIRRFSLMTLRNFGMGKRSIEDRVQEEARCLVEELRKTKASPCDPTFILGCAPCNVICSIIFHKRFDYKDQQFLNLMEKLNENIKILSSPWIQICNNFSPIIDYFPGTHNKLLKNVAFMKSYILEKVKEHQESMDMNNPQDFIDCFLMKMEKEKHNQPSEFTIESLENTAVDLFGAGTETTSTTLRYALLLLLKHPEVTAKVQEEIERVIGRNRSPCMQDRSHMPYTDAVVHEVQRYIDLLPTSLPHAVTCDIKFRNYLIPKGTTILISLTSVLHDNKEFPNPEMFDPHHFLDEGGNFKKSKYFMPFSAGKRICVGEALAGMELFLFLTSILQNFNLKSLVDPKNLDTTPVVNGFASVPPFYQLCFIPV
Sequence of EGFR (T790M) (P00533 25-1210 T790M): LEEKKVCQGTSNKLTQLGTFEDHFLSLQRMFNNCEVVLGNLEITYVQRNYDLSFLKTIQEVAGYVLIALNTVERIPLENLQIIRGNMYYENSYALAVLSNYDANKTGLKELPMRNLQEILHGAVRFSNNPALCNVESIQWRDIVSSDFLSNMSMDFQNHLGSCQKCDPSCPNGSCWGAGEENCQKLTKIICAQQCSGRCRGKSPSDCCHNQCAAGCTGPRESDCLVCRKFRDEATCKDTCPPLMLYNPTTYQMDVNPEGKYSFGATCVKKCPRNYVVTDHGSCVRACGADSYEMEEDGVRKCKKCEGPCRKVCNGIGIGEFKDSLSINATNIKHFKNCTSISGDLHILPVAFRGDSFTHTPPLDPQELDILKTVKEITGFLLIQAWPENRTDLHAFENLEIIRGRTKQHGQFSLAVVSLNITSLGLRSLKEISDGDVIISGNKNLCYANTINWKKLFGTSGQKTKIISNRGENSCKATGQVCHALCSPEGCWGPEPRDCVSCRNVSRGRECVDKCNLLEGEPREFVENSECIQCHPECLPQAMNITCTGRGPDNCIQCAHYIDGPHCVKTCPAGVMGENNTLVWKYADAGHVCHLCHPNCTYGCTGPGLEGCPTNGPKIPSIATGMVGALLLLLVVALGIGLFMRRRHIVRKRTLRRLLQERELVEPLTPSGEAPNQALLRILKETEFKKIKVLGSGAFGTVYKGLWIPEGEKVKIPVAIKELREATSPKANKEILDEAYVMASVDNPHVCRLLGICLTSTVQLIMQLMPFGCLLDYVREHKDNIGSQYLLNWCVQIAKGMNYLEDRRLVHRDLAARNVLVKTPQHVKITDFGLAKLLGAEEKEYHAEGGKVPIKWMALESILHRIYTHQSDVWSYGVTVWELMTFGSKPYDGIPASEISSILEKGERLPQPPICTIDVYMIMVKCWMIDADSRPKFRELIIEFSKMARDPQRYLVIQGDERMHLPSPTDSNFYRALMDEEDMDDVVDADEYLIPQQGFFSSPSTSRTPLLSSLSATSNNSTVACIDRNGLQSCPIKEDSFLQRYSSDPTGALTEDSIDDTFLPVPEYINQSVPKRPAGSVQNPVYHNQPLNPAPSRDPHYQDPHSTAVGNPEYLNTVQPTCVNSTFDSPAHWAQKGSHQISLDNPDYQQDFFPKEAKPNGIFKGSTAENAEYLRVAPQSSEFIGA

| Compound | GI50 (MDA-MB-231/ATCC) | CC50 (MDA-MB-231/ATCC) | remaining activity at 0.3 µM (SRC) | GI50 (COLO205) | CC50 (COLO205) | GI50 (NCI-H226) | CC50 (NCI-H226) | GI50 (K-562) | CC50 (K-562) | remaining activity at 0.3 µM (EGFR (T790M)) | GI50 (UO-31) | CC50 (UO-31) | GI50 (SN12C) | CC50 (SN12C) | GI50 (NCI-H23) | CC50 (NCI-H23) | GI50 (UACC-257) | CC50 (UACC-257) | GI50 (786-0) | CC50 (786-0) | other results |
| --- | --- | --- | --- | --- | --- | --- | --- | --- | --- | --- | --- | --- | --- | --- | --- | --- | --- | --- | --- | --- | --- |
| O=C(/C=C/CN1CCCCC1)Nc1cc2c(Nc3ccc(F)c(Cl)c3F)ncnc2cc1OCCOC(F)F.O=C(O)/C=C\C(=O)O.O=C(O)/C=C\C(=O)O [Example I-10-MA, (E)-N-[4-(3-chloro-2,4-difluoro-anilino)-7-[2-(difluoromethoxy)ethoxy]quinazolin-6-yl]-4-(1-piperidyl)but-2-enamide di-maleic acid salt] | 1.15 µM | 17.6 µM | 4.8% | 1.74 µM | > 100 µM | 1.77 µM | > 100 µM | 1.03 µM | > 100 µM | 0.75% | 0.0134 µM | 39.1 µM | 0.281 µM | 41.2 µM | 2.09 µM | > 100 µM | 1.74 µM | 24.1 µM | 0.929 µM | > 100 µM | GI50 (TK-10): < 0.01 µM; CC50 (TK-10): 35.1 µM; GI50 (HT29): 1.14 µM; CC50 (HT29): 51.4 µM; GI50 (SF-295): 1.91 µM; CC50 (SF-295): 16 µM; GI50 (SK-MEL-5): 1.63 µM; CC50 (SK-MEL-5): 6.25 µM; GI50 (M14): 1.82 µM; CC50 (M14): > 100 µM; remaining activity at 0.3 µM (LCK (Lymphocyte TK)): 1.3% |
| CN(C)C/C=C/C(=O)Nc1cc2c(Nc3ccc(F)c(Cl)c3F)ncnc2cc1OCCOC(F)F.O=C(O)/C=C\C(=O)O.O=C(O)/C=C\C(=O)O [Example I-9-MA, (E)-N-[4-(3-chloro-2,4-difluoro-anilino)-7-[2-(difluoromethoxy)ethoxy]quinazolin-6-yl]-4-(dimethylamino)but-2-enamide di-maleic acid salt] | 0.391 µM | 28.8 µM | 3.5% | 1.23 µM | 31.7 µM | 1.71 µM | 9.7 µM | 0.459 µM | 61.9 µM | 0.1% | < 0.01 µM | 14.6 µM | 0.054 µM | 28.1 µM | 1.38 µM | 15.4 µM | 2.18 µM | 34 µM | 0.248 µM | 26.6 µM | GI50 (TK-10): < 0.01 µM; CC50 (TK-10): 21.8 µM; GI50 (HT29): 0.383 µM; CC50 (HT29): 62.6 µM; GI50 (SF-295): 2.05 µM; CC50 (SF-295): 33 µM; GI50 (SK-MEL-5): 1.65 µM; CC50 (SK-MEL-5): 7.39 µM; GI50 (M14): 1.44 µM; CC50 (M14): 11 µM; remaining activity at 0.3 µM (LCK (Lymphocyte TK)): 1.3% |
| CN(C)C/C=C/C(=O)Nc1cc2c(Nc3cccc(Cl)c3F)ncnc2cc1OCCOC(F)F.O=C(O)/C=C\C(=O)O [Example I-5-MA, (E)-N-[4-(3-chloro-2-fluoro-anilino)-7-[2-(difluoromethoxy)ethoxy]quinazolin-6-yl]-4-(dimethylamino)but-2-enamide dimaleic acid salt] | – | – | – | – | – | – | – | – | – | – | – | – | – | – | – | – | – | – | – | – | IC50 (CYP 2D6): 25.7 µM; IC50 (CYP 1A2): > 50 µM; IC50 (CYP 2C19): 29.1 µM; IC50 (CYP 2C9): 30 µM; Remaining Percentage (%) in Simulated Intestinal Fluid ([1]; 120 min): 97.51%; Remaining Percentage (%) in Simulated Intestinal Fluid ([1]; 240 min): 91.51%; IC50 (CYP 3A4): 42 µM |
| CN(C)C/C=C/C(=O)Nc1cc2c(Nc3ccc(F)c(Cl)c3)ncnc2cc1O[C@H]1CCOC1 [Afatinib, reference compound] | – | – | – | – | – | – | – | – | – | – | – | – | – | – | – | – | – | – | – | – | IC50 (CYP 2D6): 28 µM; IC50 (CYP 1A2): > 50 µM; IC50 (CYP 2C19): 47.8 µM; IC50 (CYP 2C9): 34.7 µM; Remaining Percentage (%) in Simulated Intestinal Fluid ([1]; 120 min): 104.51%; Remaining Percentage (%) in Simulated Intestinal Fluid ([1]; 240 min): 104.31% |
